Source: patent publication US20150165029A1, “THERAPEUTIC COMPOSITIONS” (CUBIST PHARMACEUTICALS, INC., priority 2005, published 2015)
Where two headings read alike, the source gives them in different places.

Assays:
[1] = rat, in vivo
Procedure: (§1) Male Sprague Dawley rats weighing approximately 250 g with free access to water were fasted overnight. These rats were anesthetized with 40 mg/kg pentobarbital via jugular vein catheter. The small intestine was exposed by a ventral midline incision. A small incision was made into the duodenum and a #9el capsule was inserted into the lumen of the small intestine. The duodenum and the midline incisions were sutured closed. The rats regained consciousness in 30-90 minutes. Blood samples were taken from the jugular vein catheter at 0, 15, 30 and 60 minutes and 2, 3, 4 and 6 hours. Food was returned at 1 hour post surgery. Blood samples were collected in heparinized tubes and subsequently centrifuged. The plasma was stored at −20 C in heparinized tubes. The rats regained consciousness in 30-90 minutes. After the 6 hr blood sample, the rat was euthanized and a necropsy was performed to determine accuracy and integrity of the surgery. The duodenum was examined for blockage, leakage and any evidence of inflammation or irritation at the site of the capsule implantation.

[2] = Rat intraduodenal capsule model, Cmax with different enhancers (Example 6); settings: ID in rats, Cmax normalized to 40 mg/Kg
Procedure: Male Sprague Dawley rats weighing approximately 250 g with free access to water were fasted overnight. These rats were anesthetized with 40 mg/kg pentobarbital via jugular vein catheter. The small intestine was exposed by a ventral midline incision. A small incision was made into the duodenum and a #9el capsule was inserted into the lumen of the small intestine. The duodenum and the midline incisions were sutured closed. The rats regained consciousness in 30-90 minutes. Blood samples were taken from the jugular vein catheter at 0, 15, 30 and 60 minutes and 2, 3, 4 and 6 hours. Food was returned at 1 hour post surgery. Blood samples were collected in heparinized tubes and subsequently centrifuged. The plasma was stored at −20 C in heparinized tubes. […] After the 6 hr blood sample, the rat was euthanized and a necropsy was performed to determine accuracy and integrity of the surgery. The duodenum was examined for blockage, leakage and any evidence of inflammation or irritation at the site of the capsule implantation.
In each instance, the compositions were administered ID in 3 rats, unless otherwise indicated.

[3] = Rat intraduodenal capsule model, % bioavailability; settings: for Drug plus enhancer % BA: 4:1 (enhancer:drug), ceftriaxone/carrageenan complex+Laureth-12, daptomycin carrageenan complex+Ceteth-15, CMPD 1+Ceteth-15, cidofovir, meropenem, caspofungin+Ceteth-12; for bioavailability: male, Sprague Dawley, rat, plasma
Procedure: as §1

[4] = without any absorption enhancer; cited from earlier work
[5] = rat, in vivo; cited from earlier work

Row | % bioavailability [1] | Drug plus enhancer % BA ([3]; ID, rats) | bioavailability [3] | Compound | other results
1 | 10 (4) % |  |  | Laureth-23 | 
2 | 60 (19) % |  |  | Laureth-9 | 
3 |  | 30% |  | CN(/N=C/C1=C(C(=O)O)N2C(=O)C(NC(=O)/C(=N\OCF)c3nsc(N)n3)[C@H]2SC1)C(=N)N1CCNCC1 (stereo partly shown) [CMPD 1, 7-(((5-amino-1,2,4-thiadiazol-3-yl)-(Z)-(fluoromethoxyimino)acetyl)amino)-3(E)-((imino-1-piperazinylmethyl)-methylhydrazono)methyl-3-cephem-4-carboxylic acid] | Cmax Mean (±SD) ([2]; enhancer Capmul C10, enhancer:drug 4:1): 7 (7) μg/mL; Cmax Mean (±SD) ([2]; enhancer Gelmul 90, enhancer:drug 4:1): 13 (8) μg/mL; Cmax Mean (±SD) ([2]; enhancer Laureth-12, enhancer:drug 4:1): 22 (4) μg/mL; Cmax Mean (±SD) ([2]; enhancer Sodium Laurate, enhancer:drug 4:1): 7 (1) μg/mL
4 |  | 83^2% |  | CO/N=C(\C(=O)N[C@@H]1C(=O)N2C(C(=O)O)=C(CSc3nc(=O)c(=O)[nH]n3C)CS[C@H]12)c1csc(N)n1 [Ceftriaxone, ceftriaxone] | Drug only % BA ([3]; without POE alkyl ether enhancer, ID, rats): 2%; oral bioavailability [4]: 0-5%
5 |  | 28% | 1% | C[C@@H](O)[C@H]1C(=O)N2C(C(=O)O)=C(S[C@@H]3CN[C@H](C(=O)N(C)C)C3)[C@H](C)[C@H]12 [Meropenem, meropenem] | 
6 |  |  |  | CCCCCCCCCC(=O)N[C@@H](Cc1c[nH]c2ccccc12)C(=O)N[C@H](CC(N)=O)C(=O)N[C@@H](CC(=O)O)C(=O)N[C@@H]1C(=O)NCC(=O)N[C@@H](CCCN)C(=O)N[C@@H](CC(=O)O)C(=O)N[C@H](C)C(=O)N[C@@H](CC(=O)O)C(=O)NCC(=O)N[C@H](CO)C(=O)N[C@@H]([C@H](C)CC(=O)O)C(=O)N[C@@H](CC(=O)c2ccccc2N)C(=O)O[C@@H]1C [Daptomycin, daptomycin, reference compound] | oral bioavailability of drug only (footnote) [5]: poor oral bioavailability; Drug plus enhancer % BA [1]: 44^2%
7 |  | 44% | 2% | Nc1ccn(C[C@@H](CO)OCP(=O)(O)O)c(=O)n1 [Cidofovir, cidofovir] | 
8 | 7 (5) % |  |  | Beheneth-20 | 

Row | Compound | % bioavailability [1] | Drug plus enhancer % BA ([3]; ID, rats) | bioavailability [3] | other results
9 | CC[C@H](C)C[C@H](C)CCCCCCCCC(=O)N[C@H]1C[C@@H](O)[C@@H](NCCN)NC(=O)[C@@H]2[C@@H](O)CCN2C(=O)[C@H]([C@H](O)CCN)NC(=O)[C@H]([C@H](O)[C@@H](O)c2ccc(O)cc2)NC(=O)[C@@H]2C[C@@H](O)CN2C(=O)[C@H]([C@@H](C)O)NC1=O [Caspofungin, caspofungin] |  | <5% | < 1% | 
